Measurements taken from PMC11678328, “Phosphine Oxide Indenoquinoline Derivatives: Synthesis and Biological Evaluation as Topoisomerase I Inhibitors and Antiproliferative Agents” (Molecules, 2024).

Assays:
human TOP1 [1] = biological target: T1, human TOP1 (Homo sapiens, UniProt P11387); assay: TOP1 supercoiled plasmid DNA relaxation assay; type: biochemical; conditions: for Persistence of TOP1 inhibition over the time course / TOP1 relaxation activity after preincubation of compound with TOP1: 100 μM; for Persistence of TOP1 inhibition over the time course: in words; for TOP1 Inhibition 1 min: 1 min reaction; for TOP1 Inhibition 1 min / TOP1 Inhibition 3 min / TOP1 Inhibition 5 min: compounds at 100 μM, semiquantitative; for TOP1 Inhibition 3 min: 3 min reaction; for TOP1 Inhibition 5 min: 5 min reaction; for TOP1 relaxation activity after preincubation of compound with TOP1: compound incubated with TOP1 for 15 min at 37 °C, then DNA added
T1 construct: made in house; host or cells: Saccharomyces cerevisiae TOP1 null strain RS190, plasmid pHT143 (GAL promoter)
T1 sequence (P11387 1-765): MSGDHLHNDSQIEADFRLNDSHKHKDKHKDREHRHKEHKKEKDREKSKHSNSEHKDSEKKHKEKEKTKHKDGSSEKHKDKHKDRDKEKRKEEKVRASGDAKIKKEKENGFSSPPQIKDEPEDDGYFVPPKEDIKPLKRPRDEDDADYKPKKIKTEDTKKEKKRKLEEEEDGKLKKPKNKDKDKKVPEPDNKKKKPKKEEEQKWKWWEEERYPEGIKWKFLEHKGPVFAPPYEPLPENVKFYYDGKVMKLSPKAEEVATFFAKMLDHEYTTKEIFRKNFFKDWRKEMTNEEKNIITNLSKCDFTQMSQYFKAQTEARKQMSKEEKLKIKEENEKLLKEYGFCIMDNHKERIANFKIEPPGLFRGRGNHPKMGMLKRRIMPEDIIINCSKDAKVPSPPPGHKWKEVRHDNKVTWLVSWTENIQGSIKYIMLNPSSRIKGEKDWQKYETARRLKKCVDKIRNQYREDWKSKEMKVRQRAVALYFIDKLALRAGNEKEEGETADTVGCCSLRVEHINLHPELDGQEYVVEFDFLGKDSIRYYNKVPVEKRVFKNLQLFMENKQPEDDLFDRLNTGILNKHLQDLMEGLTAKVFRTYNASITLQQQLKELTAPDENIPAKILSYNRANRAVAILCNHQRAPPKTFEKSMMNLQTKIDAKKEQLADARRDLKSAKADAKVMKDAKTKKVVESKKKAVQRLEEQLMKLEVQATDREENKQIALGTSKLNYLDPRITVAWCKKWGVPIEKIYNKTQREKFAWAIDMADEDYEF
Text: The effect of the previously prepared compounds as TOP1 inhibitors was studied. A conventional supercoiled plasmid relaxation assay was used to determine if the newly fused tetrahydroindenoquinolines 8, more aromatic indenoquinolines 9, and carbonyl derivatives 10 with phosphine oxide substituents inhibit human TOP1 activity by converting supercoiled plasmid DNA to its relaxed form. In these experiments, compound samples were mixed with the enzyme followed by the addition of a supercoiled plasmid DNA substrate, and incubation continued for increasing time intervals (1 min, 3 min, and 5 min). The reaction was terminated by the addition of SDS. DNA relaxation products were then resolved by 1% agarose electrophoresis gel and visualized by gel red staining.
The yeast Saccaromyces cerevisiae TOP1 null strain RS190, which was used for the expression of recombinant human TOP1, was a kind gift from R. Sternglanz (State University of New York, Stony Brook, NY, USA). Plasmid pHT143, for the expression of recombinant TOP1 under the control of an inducible GAL promoter, was described. The plasmids pHT143 were transformed into the yeast S. cerevisiae strain RS190. The proteins were expressed and purified by affinity chromatography essentially as described. The protein concentrations were estimated from Coomassie blue-stained SDS/polyacrylamide gels by comparison to serial dilutions of bovine serum albumin (BSA).
TOP1 activity was assayed using a DNA relaxation assay by incubating 110 ng/mL of TOP1 with 0.5 µg of negatively supercoiled pUC18 in […] of reaction buffer (20 mM Tris HCl, 0.1 mM Na2EDTA, 10 mM MgCl2, […] acetylated BSA, and 150 mM KCl, pH 7.5). The effect of the synthesized phosphorylated derivatives 8, 9, and 10 on the TOP1 activity was measured by adding different concentrations of the compounds, at different time points, as indicated in the text. The reactions were performed at 37 °C stopped by the addition of 0.5% SDS after the indicated time intervals. The samples were protease-digested and electrophoresed in a horizontal 1% agarose gel in 1xTBE (50 mM Tris, 45 mM boric acid, 1 mM EDTA) at 25V during 18h. The gel was stained with gel red (BIOTIUM, 5 mg/mL), destained with water, and photographed under UV illumination. Since all drugs were dissolved in dimethyl sulfoxide (DMSO), a […] control sample containing the same DMSO concentration as the samples incubated with the drugs was included in all experiments.

[2] = test system: MRC-5, lung fibroblast cells; assay: CCK-8 cytotoxicity assay, MRC5; type: cell-based, human; conditions: Homo sapiens; MRC5 non-cancerous cells, 48h, CCK-8
Text: (§1) The cytotoxic effects of the newly synthesized diphenyl(tetrahydro-5H-indeno[2,1-c]quinolin-2-yl)phosphine oxides 8, diphenyl(7H-indeno[2,1-c]quinolin-2-yl)phosphine oxides 9, and diphenyl(7-oxo-7H-indeno[2,1-c]quinolin-2-yl)phosphine oxides 10 derivatives were studied against several human cell lines: A549 (carcinomic human alveolar basal epithelial cell), SKOV3 (human ovarian carcinoma), and HEK293 (human embryonic kidney). Furthermore, in order to analyze the selective cytotoxicity facing exclusively cancerous cell lines, toxicity against a non-cancerous cell line (MRC-5, lung fibroblast cells) was also evaluated (Table 3). The cell counting kit (CCK-8) assay was employed to assess the growth inhibition and cell proliferation inhibitory activities of the compounds, which are described in Table 3 as IC50 values.
(§2) Cells were cultured according to the supplier’s instructions. Cells were seeded in 96-well plates at a density of 1.5–3 × 10^3 cells per well and incubated overnight in 0.1 mL of media supplied with 10% Fetal Bovine Serum (Lonza) in a 5% CO2 incubator at 37 °C. On day 2, drugs were added and the samples were incubated for 48h. After treatment, 10 μL of the cell counting kit-8 was added into each well for an additional 2h incubation at 37 °C. The absorbance of each well was determined by an Automatic Elisa Reader System at 450 nm wavelength (deducting 620 nm). CPT was used as the positive control.

[3] = test system: A549 (carcinomic human alveolar basal epithelial cell); assay: CCK-8 cytotoxicity assay, A549; type: cell-based; conditions: Homo sapiens, A549, 48 h, A549 cells, 48h, CCK-8
Text: as §1, §2

[4] = test system: SKOV3 (human ovarian carcinoma); assay: CCK-8 cytotoxicity assay, SKOV3; type: cell-based; conditions: SK-OV-3, SKOV3 cells, 48h
Text: as §1, §2

human TOP1 [5] = biological target: T1, human TOP1; assay: TOP1 supercoiled plasmid DNA relaxation assay; type: biochemical; conditions: for TOP1 Inhibition 30 min: 30 min reaction, compounds at 100 μM, semiquantitative; for TOP1 relaxation activity after preincubation of compound with DNA: 100 μM, compound incubated with DNA for 15 min at 37 °C before TOP1 was added
[6] = test system: HEK293 (human embryonic kidney); assay: CCK-8 cytotoxicity assay, HEK293; type: cell-based; conditions: HEK293 cells, 48h
Text: as §1, §2

Structure (SMILES) | Persistence of TOP1 inhibition over the time course (human TOP1 [1]) | TOP1 Inhibition 1 min (human TOP1 [1]) | TOP1 Inhibition 3 min (human TOP1 [1]) | TOP1 Inhibition 5 min (human TOP1 [1]) | TOP1 Inhibition 30 min (human TOP1 [5]) | TOP1 relaxation activity after preincubation of compound with DNA (human TOP1 [5]) | IC50 [2] [µM] | IC50 [3] [µM] | IC50 [4] [µM] | TOP1 relaxation activity after preincubation of compound with TOP1 (human TOP1 [1]) | IC50 [6] [µM]
O=P(c1ccccc1)(c1ccccc1)c1ccc2c(c1)C1c3ccccc3CC1C(c1ccccc1)N2 (centres unmarked) [Compound 8a, Diphenyl(6-phenyl-6,6a,7,11b-tetrahydro-5H-indeno[2,1-c]quinolin-2-yl)phosphine oxide] | more persistent inhibition | ++ | ++ | ++ | ++ | – | > 50 | 40.2 ± 7.13 | 6.35 ± 1.73 | – | –
O=P(c1ccccc1)(c1ccccc1)c1ccc2c(c1)C1c3ccccc3CC1C(c1ccc(C(F)(F)F)cc1)N2 (centres unmarked) [Compound 8b, Diphenyl(6-(4-(trifluoromethyl)phenyl)-6,6a,7,11b-tetrahydro-5H-indeno[2,1-c]quinolin-2-yl)phosphine oxide] | more persistent inhibition | +++ (strong inhibition) | +++ (strong inhibition) | +++ (strong inhibition) | +++ (strong inhibition) | partially relaxing the DNA | > 50 | 25.8 ± 6.98 | > 50 | the enzyme was inactive, not being able to relax the DNA | > 50
O=P(c1ccccc1)(c1ccccc1)c1ccc2c(c1)C1c3ccccc3CC1C(c1ccc(F)cc1)N2 (centres unmarked) [Compound 8c, Diphenyl(6-(4-fluorophenyl)-6,6a,7,11b-tetrahydro-5H-indeno[2,1-c]quinolin-2-yl)phosphine oxide] | – | ++ | ++ | ++ | ++ | – | 10.7 ± 0.43 | 19.9 ± 3.35 | > 50 | – | > 50
O=P(c1ccccc1)(c1ccccc1)c1ccc2c(c1)C1c3ccccc3CC1C(c1cccc3ccccc13)N2 (centres unmarked) [Compound 8g, Diphenyl(6-(naphthalen-1-yl)-6,6a,7,11b-tetrahydro-5H-indeno[2,1-c]quinolin-2-yl)phosphine oxide] | – | + (weak inhibition) | + (weak inhibition) | + (weak inhibition) | + (weak inhibition) | – | > 50 | > 50 | > 50 | – | > 50
O=[N+]([O-])c1ccc(C2Nc3ccc(P(=O)(c4ccccc4)c4ccccc4)cc3C3c4ccccc4CC23)cc1 (centres unmarked) [Compound 8k, Diphenyl(6-(4-nitrophenyl)-6,6a,7,11b-tetrahydro-5H-indeno[2,1-c]quinolin-2-yl)phosphine oxide] | more persistent inhibition | + (weak inhibition) | + (weak inhibition) | + (weak inhibition) | + (weak inhibition) | – | > 50 | > 50 | > 50 | – | > 50

The next lines start with results.

Persistence of TOP1 inhibition over the time course (human TOP1 [1]) | TOP1 Inhibition 1 min (human TOP1 [1]) | TOP1 Inhibition 3 min (human TOP1 [1]) | TOP1 Inhibition 5 min (human TOP1 [1]) | TOP1 Inhibition 30 min (human TOP1 [5]) | TOP1 relaxation activity after preincubation of compound with DNA (human TOP1 [5]) | Structure (SMILES) | IC50 [2] [µM] | IC50 [3] [µM] | IC50 [4] [µM] | TOP1 relaxation activity after preincubation of compound with TOP1 (human TOP1 [1]) | IC50 [6] [µM]
– | +++ (strong inhibition) | +++ (strong inhibition) | +++ (strong inhibition) | +++ (strong inhibition) | partially relaxing the DNA | O=P(c1ccccc1)(c1ccccc1)c1ccc2nc(-c3ccc(C(F)(F)F)cc3)c3c(c2c1)-c1ccccc1C3 [Compound 9b, Diphenyl(6-(4-(trifluoromethyl)phenyl)-7H-indeno[2,1-c]quinolin-2-yl)phosphine oxide] | > 50 | > 50 | > 50 | the enzyme was inactive, not being able to relax the DNA | > 50
– | ++ | ++ | ++ | ++ | – | O=P(c1ccccc1)(c1ccccc1)c1ccc2nc(-c3cccc4ccccc34)c3c(c2c1)-c1ccccc1C3 [Compound 9g, Diphenyl(6-(naphthalen-1-yl)-7H-indeno[2,1-c]quinolin-2-yl)phosphine oxide] | > 50 | > 50 | > 50 | – | > 50
– | ++ | ++ | ++ | ++ | – | COc1cccc(-c2nc3ccc(P(=O)(c4ccccc4)c4ccccc4)cc3c3c2Cc2ccccc2-3)c1 [Compound 9i, Diphenyl(6-(3-methoxyphenyl)-7H-indeno[2,1-c]quinolin-2-yl)phosphine oxide] | > 50 | > 50 | > 50 | – | > 50
– | + (weak inhibition) | ++ | ++ | ++ | – | O=C1c2ccccc2-c2c1c(-c1ccccc1)nc1ccc(P(=O)(c3ccccc3)c3ccccc3)cc21 [Compound 10a, Diphenyl(7-oxo-6-phenyl-7H-indeno[2,1-c]quinolin-2-yl)phosphine oxide] | > 50 | > 50 | > 50 | – | > 50
– | ++ | ++ | ++ | ++ | – | O=C1c2ccccc2-c2c1c(-c1ccc(C(F)(F)F)cc1)nc1ccc(P(=O)(c3ccccc3)c3ccccc3)cc21 [Compound 10b, Diphenyl(7-oxo-(6-(4-trifluoromethyl)phenyl)-7H-indeno[2,1-c]quinolin-2-yl)phosphine oxide] | > 50 | > 50 | > 50 | – | > 50
